Eight compounds from patent US9499492B2, “4-(ortho)-fluorophenyl-5-fluoropyrimidin-2-yl amines containing a sulfoximine group” (BAYER PHARMA AKTIENGESELLSCHAFT, priority 2012, dated 2016) can be followed below.

Where a name gives a salt, the structure may show the parent alone. Read-outs that look alike come from different tables or passages of the source.

Experiment [1] concerns the target T1, CDK9/CycT1 (Homo sapiens (Human), UniProt P50750). The experiment can be described thus: CDK9/CycT1 high ATP kinase assay (Method 1b). To be noted: 2 mM ATP. In kind it is biochemical. The protocol:
1b. CDK9/CycT1 High ATP Kinase Assay
CDK9/CycT1-inhibitory activity of compounds of the present invention at a high ATP concentration after preincubation of enzyme and test compounds was quantified employing the CDK9/CycT1 TR-FRET assay as described in the following paragraphs.
Recombinant full-length His-tagged human CDK9 and CycT1, expressed in insect cells and purified by Ni-NTA affinity chromatography, were purchase from Invitrogen (Cat. No PV4131). As substrate for the kinase reaction biotinylated peptide biotin-Ttds-[…] (C-terminus in amid form) was used which can be purchased e.g. form the company JERINI peptide technologies (Berlin, Germany).
(§1) For the assay 50 nl of a 100 fold concentrated solution of the test compound in DMSO was pipetted into a black low volume 384 well microtiter plate (Greiner Bio-One, Frickenhausen, Germany), 2 μl of a solution of CDK9/CycT1 in aqueous assay buffer [50 mM Tris/HCl pH 8.0, 10 mM MgCl2, 1.0 mM dithiothreitol, 0.1 mM sodium ortho-vanadate, 0.01% (v/v) Nonidet-P40 (Sigma)] were added and the mixture was incubated for 15 min at 22° C. to allow pre-binding of the test compounds to the enzyme before the start of the kinase reaction. […] The concentration of CDK9/CycT1 was adjusted depending of the activity of the enzyme lot and was chosen appropriate to have the assay in the linear range, typical concentrations were in the range of 0.5 μg/ml.
(§2) The resulting mixture was incubated 1 h at 22° C. to allow the formation of complex between the phosphorylated biotinylated peptide and the detection reagents. Subsequently the amount of phosphorylated substrate was evaluated by measurement of the resonance energy transfer from the Eu-chelate to the streptavidine-XL. Therefore, the fluorescence emissions at 620 nm and 665 nm after excitation at 350 nm was measured in a HTRF reader, e.g. a Rubystar (BMG Labtechnologies, Offenburg, Germany) or a Viewlux (Perkin-Elmer). The ratio of the emissions at 665 nm and at 622 nm was taken as the measure for the amount of phosphorylated substrate.

Experiment [2] has as its target T1, CDK9/CycT1. The experiment is described as follows: CDK9/CycT1 kinase assay (Method 1a). To be noted: for IC50: 10 μM ATP; for Selectivity CDK9/CDK2: derived from Methods 1a. and 2. It counts as biochemical.
Excerpt: 1a. CDK9/CycT1 Kinase Assay:
CDK9/CycT1-inhibitory activity of compounds of the present invention was quantified employing the CDK9/CycT1 TR-FRET assay as described in the following paragraphs:
Recombinant full-length His-tagged human CDK9 and CycT1, expressed in insect cells and purified by Ni-NTA affinity chromatography, were purchased from Invitrogen (Cat. No PV4131). As substrate for the kinase reaction biotinylated peptide biotin-Ttds-[…] (C-terminus in amid form) was used which can be purchased e.g. form the company JERINI Peptide Technologies (Berlin, Germany).
as §1, with “1” for “0.5”
as §2

The next experiment concerns the target CDK2/CycE (Homo sapiens (Human), UniProt P24941). The experiment can be described thus: CDK2/CycE kinase assay (Method 2). It counts as biochemical. The conditions noted are these: 10 μM ATP.
Excerpt: 2. CDK2/CycE Kinase Assay:
CDK2/CycE-inhibitory activity of compounds of the present invention was quantified employing the CDK2/CycE TR-FRET assay as described in the following paragraphs:
Recombinant fusion proteins of GST and human CDK2 and of GST and human CycE, expressed in insect cells (Sf9) and purified by Glutathion-Sepharose affinity chromatography, were purchased from ProQinase GmbH (Freiburg, Germany). As substrate for the kinase reaction biotinylated peptide biotin-Ttds-[…] (C-terminus in amid form) was used which can be purchased e.g. form the company JERINI Peptide Technologies (Berlin, Germany).
as §1, with “CDK2/CycE” for “CDK9/CycT1”, “130 ng/ml.” for “0.5 μg/ml.”
as §2, with “TR-FRET” for “HTRF”

In experiment [3] the test system is A2780, human ovarian carcinoma cells. The experiment is described as follows: Proliferation assay, A2780 (Method 3). The conditions noted are these: Homo sapiens, A2780, 96 h, A2780, 4 days, crystal violet; read-out: Inhibition of A2780 cell proliferation IC50. It counts as cell-based. The protocol:
(§3) After 24 hours, the cells of one plate (zero-point plate) were stained with crystal violet (see below), while the medium of the other plates was replaced by fresh culture medium (200 μl), to which the test substances were added in various concentrations (0 μM, as well as in the range of 0.001-10 μM; the final concentration of the solvent dimethyl sulfoxide was 0.5%). The cells were incubated for 4 days in the presence of test substances. Cell proliferation was determined by staining the cells with crystal violet: the cells were fixed by adding 20 μl/measuring point of an 11% glutaric aldehyde solution for 15 minutes at room temperature. After three washing cycles of the fixed cells with water, the plates were dried at room temperature. The cells were stained by adding 100 μl/measuring point of a 0.1% crystal violet solution (pH 3.0). After three washing cycles of the stained cells with water, the plates were dried at room temperature. The dye was dissolved by adding 100 μl/measuring point of a 10% acetic acid solution. The extinction was determined by photometry at a wavelength of 595 nm. The change of cell number, in percent, was calculated by normalization of the measured values to the extinction values of the zero-point plate (=0%) and the extinction of the untreated (0 μm) cells (=100%).

Experiment [4] deals with HeLa, human cervical tumour cells. The experiment is described as follows: Proliferation assay, HeLa (Method 3). It counts as cell-based. To be noted: 4 days, crystal violet, read-out: Inhibition of HeLa cell proliferation IC50. The protocol: as §3

T1 sequence (P50750 whole entry): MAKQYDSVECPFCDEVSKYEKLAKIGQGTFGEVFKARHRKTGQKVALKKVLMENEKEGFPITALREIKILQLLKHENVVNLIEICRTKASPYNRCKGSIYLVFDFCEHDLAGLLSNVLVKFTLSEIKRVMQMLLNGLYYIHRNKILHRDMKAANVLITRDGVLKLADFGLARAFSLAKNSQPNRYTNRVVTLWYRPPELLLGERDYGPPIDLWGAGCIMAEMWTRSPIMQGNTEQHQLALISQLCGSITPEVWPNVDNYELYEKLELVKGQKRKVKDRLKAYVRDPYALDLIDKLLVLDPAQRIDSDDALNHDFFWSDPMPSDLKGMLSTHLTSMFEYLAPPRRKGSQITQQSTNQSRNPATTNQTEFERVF
T1 sequence (O60563 whole entry partner): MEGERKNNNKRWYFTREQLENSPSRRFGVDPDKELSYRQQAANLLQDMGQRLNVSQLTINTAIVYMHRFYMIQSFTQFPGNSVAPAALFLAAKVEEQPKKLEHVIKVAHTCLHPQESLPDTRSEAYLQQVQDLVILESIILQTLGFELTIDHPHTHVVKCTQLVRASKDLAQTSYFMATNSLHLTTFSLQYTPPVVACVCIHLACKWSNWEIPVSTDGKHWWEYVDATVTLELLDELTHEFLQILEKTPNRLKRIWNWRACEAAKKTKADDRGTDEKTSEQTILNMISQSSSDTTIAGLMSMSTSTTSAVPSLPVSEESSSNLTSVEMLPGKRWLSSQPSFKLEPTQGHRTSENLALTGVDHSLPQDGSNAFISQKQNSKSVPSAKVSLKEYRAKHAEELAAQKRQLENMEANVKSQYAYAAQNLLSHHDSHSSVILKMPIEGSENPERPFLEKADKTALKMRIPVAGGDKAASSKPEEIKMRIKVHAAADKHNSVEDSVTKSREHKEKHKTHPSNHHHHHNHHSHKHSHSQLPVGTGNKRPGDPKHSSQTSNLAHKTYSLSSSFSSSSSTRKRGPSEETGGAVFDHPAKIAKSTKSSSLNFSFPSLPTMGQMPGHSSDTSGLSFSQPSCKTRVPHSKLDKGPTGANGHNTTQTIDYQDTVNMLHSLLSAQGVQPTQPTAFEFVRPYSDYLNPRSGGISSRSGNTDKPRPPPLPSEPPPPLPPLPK

Turning to `Cc1cc(CS(C)(=N)=O)cc(Nc2ncc(F)c(-c3ccc(F)cc3F)n2)c1` (racemic) [Example 17, (rac)-4-(2,4-Difluorophenyl)-5-fluoro-N-{3-methyl-5-[(S-methylsulfonimidoyl)methyl]phenyl}pyrimidin-2-amine], the IC50 at CDK9/CycT1 [1] was 470 nM; against CDK9/CycT1 [2] it was 26 nM; at CDK2/CycE, 480 nM; in experiment [3], 180 nM; in experiment [4] (Homo sapiens, 96 h), 1360 nM. The “Selectivity CDK9/CDK2” value on CDK9/CycT1 [2] is 19.

On to `Cc1cc(CS(C)(=N)=O)cc(Nc2ncc(F)c(-c3ccc(F)cc3F)n2)c1` (single isomer, unassigned) [Example 37, 4-(2,4-Difluorophenyl)-5-fluoro-N-{3-methyl-5-[(S-methylsulfonimidoyl)methyl]-phenyl}pyrimidin-2-amine], for which the IC50 at CDK9/CycT1 [1] amounted to 6310 nM; against CDK9/CycT1 [2], 36 nM; at CDK2/CycE, 830 nM; in experiment [4] (Homo sapiens, 96 h), 1080 nM. In addition, the “Selectivity CDK9/CDK2” value on CDK9/CycT1 [2] worked out at 23.

With `CS(=N)(=O)Cc1cccc(Nc2ncc(F)c(-c3ccc(F)cc3F)n2)c1` (racemic) [Example 9, (rac)-4-(2,4-Difluorophenyl)-5-fluoro-N-{3-[(S-methylsulfonimidoyl)methyl]phenyl}pyrimidin-2-amine], the IC50 came to 2710 nM against CDK9/CycT1 [1], 42 nM against CDK9/CycT1 [2] and 1100 nM against CDK2/CycE. Further, on CDK9/CycT1 [2], the “Selectivity CDK9/CDK2” value was determined as 25.

As to `N=S(=O)(CCN)Cc1cc(Nc2ncc(F)c(-c3ccc(F)cc3F)n2)cc(C(F)(F)F)c1` (single isomer, unassigned) [Example 27, N-[3-{[S-(2-Aminoethyl)sulfonimidoyl]methyl}-5-(trifluoromethyl)phenyl]-4-(2,4-difluorophenyl)-5-fluoropyrimidin-2-amine], the IC50 at CDK9/CycT1 [1] is 276 nM; at CDK2/CycE it was 1100 nM.

With `Cc1cc(CS(C)(=N)=O)cc(Nc2ncc(F)c(-c3ccc(F)cc3F)n2)c1` (single isomer, unassigned) [Example 38, 4-(2,4-Difluorophenyl)-5-fluoro-N-{3-methyl-5-[(S-methylsulfonimidoyl)methyl]-phenyl}pyrimidin-2-amine], the IC50 against CDK9/CycT1 [1] was 6490 nM; on CDK9/CycT1 [2], 19 nM; against CDK2/CycE, 720 nM; in experiment [4], 649 nM. In addition, the “Selectivity CDK9/CDK2” value at CDK9/CycT1 [2] was 38.

Turning to `COCCS(=O)(Cc1cc(Nc2ncc(F)c(-c3ccc(F)cc3F)n2)cc(C(F)(F)F)c1)=NC#N` (racemic) [Example 22, (rac)-{[3-{[4-(2,4-Difluorophenyl)-5-fluoropyrimidin-2-yl]amino}-5-(trifluoromethyl)benzyl](2-methoxyethyl)oxido-λ^6-sulfanylidene}cyanamide], the IC50 stood at 19 nM against CDK9/CycT1 [1]; 7 nM against CDK9/CycT1 [2]; 1200 nM on CDK2/CycE; 900 nM in experiment [4] (Homo sapiens, 96 h). Besides, at CDK9/CycT1 [2], the “Selectivity CDK9/CDK2” value is on record as 183.

`N=S(=O)(CCN)Cc1cc(Nc2ncc(F)c(-c3ccc(F)cc3F)n2)cc(C(F)(F)F)c1` (single isomer, unassigned) [Example 26, N-[3-{[S-(2-Aminoethyl)sulfonimidoyl]methyl}-5-(trifluoromethyl)phenyl]-4-(2,4-difluorophenyl)-5-fluoropyrimidin-2-amine]: the IC50 is 278 nM against CDK9/CycT1 [1] and 1300 nM against CDK2/CycE.

As for `N=S(=O)(CCN)Cc1cc(Nc2ncc(F)c(-c3ccc(F)cc3F)n2)cc(C(F)(F)F)c1` (racemic) [Example 25, (rac)-N-[3-{[S-(2-Aminoethyl)sulfonimidoyl]methyl}-5-(trifluoromethyl)phenyl]-4-(2,4-difluorophenyl)-5-fluoropyrimidin-2-amine trifluoroacetate], the IC50 at CDK9/CycT1 [1] is 417 nM; at CDK9/CycT1 [2] it was 85 nM; against CDK2/CycE, 3200 nM; in experiment [4] (Homo sapiens, 96 h) it was 2210 nM. For the same compound, the “Selectivity CDK9/CDK2” value at CDK9/CycT1 [2] is 38.
